{"source": "paper PMC13293952", "about": "(Cell Reports Medicine, 2026)", "key": {"PICK1": {"biological_target": "PICK1 (Rattus norvegicus, UniProt Q9EP80)", "sequence (Q9EP80 whole entry)": "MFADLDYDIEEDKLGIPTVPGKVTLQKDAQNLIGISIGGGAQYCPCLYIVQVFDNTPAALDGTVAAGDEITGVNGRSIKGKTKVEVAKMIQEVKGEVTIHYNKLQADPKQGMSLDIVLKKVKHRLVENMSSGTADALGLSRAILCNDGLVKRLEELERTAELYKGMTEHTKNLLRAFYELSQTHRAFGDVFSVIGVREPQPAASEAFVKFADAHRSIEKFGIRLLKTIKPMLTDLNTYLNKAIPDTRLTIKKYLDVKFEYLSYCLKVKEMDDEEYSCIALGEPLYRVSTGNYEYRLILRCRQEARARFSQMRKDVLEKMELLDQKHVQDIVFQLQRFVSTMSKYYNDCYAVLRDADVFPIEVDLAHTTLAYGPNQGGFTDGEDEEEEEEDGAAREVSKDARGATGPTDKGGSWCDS", "assay": "FPLC", "format": "biochemical", "conditions": "FPLC Superdex 200, PICK1 40 µM, molar ratio 1:4 or 1:2, >=20 h at 4°C, A280"}, "CFA mice": {"tested_on": "CFA mice", "assay": "CFA model of inflammatory pain, von Frey paw withdrawal threshold", "format": "in vivo, mouse", "conditions": "3 mg/kg s.c. on days 11 and 40 after CFA, AAV8-tdTomato controls"}}, "data": [{"compound": "biotin-ahx-GEELLEDIRKFNEMRKNMDQLKEKINSVLSIRQGGGGS-HWLKV [SSO10a-C5]", "values": [{"measurement": "PICK1 oligomerization", "setting": "PICK1", "result": "drove PICK1 oligomerization"}]}, {"compound": "O=C1CC[C@@]2(O)[C@H]3Cc4ccc(O)c5c4[C@@]2(CCN3CC2CC2)[C@H]1O5", "note": "[NTX, naltrexone]", "values": [{"measurement": "reinstatement of allodynia", "setting": "CFA mice", "result": "selectively reinstated allodynia in this group"}]}]}
